According to PMC9228185, “Accurate Mass Identification of an Interfering Water Adduct and Strategies in Development and Validation of an LC-MS/MS Method for Quantification of MPI8, a Potent SARS-CoV-2 Main Protease Inhibitor, in Rat Plasma in Pharmacokinetic Studies” (Pharmaceuticals, 2022):
Entries after “also recorded” stand apart in the source; their conditions may differ. Read-outs that look alike come from different tables or passages of the source.

How the values were obtained:
[1] = parameters: method as in PMID 22915796, PMID 27027316; conditions: aldehyde bisulfite prodrug; cited from earlier work
[2] = type: physicochemical; conditions: 1 mg/mL in acetonitrile, −80 °C
[3] = Crossover pharmacokinetic study in rats after IV or oral MPI8 sulfonate; type: in vivo, Sprague-Dawley rats; conditions: for AUC(0-t): read-out: AUC0−10 h; for Cmax: po
From the text: The validated assay was applied in a crossover pharmacokinetic study to evaluate the oral bioavailability of MPI8 sulfonate in rats. The animal study protocol (#9132) was reviewed and approved by the Institutional Animal Care and Use Committee (IACUC) at Texas Southern University on 11 July 2020.
Male adult Sprague-Dawley rats were purchased from Envigo RMS (Indianapolis, IN, USA). Rats were cannulated via jugular vein a day before dosing. Three rats were intravenously administered a single dose of 5 mg/kg MPI8 sulfonate (5 mg/mL in 5% dextrose) via the jugular vein. Serial blood samples (about 0.1 mL) were collected from the cannulated jugular vein into heparin-coating tubes before dosing and at 2 min, 5 min, 15 min, 0.5 h, 1 h, 2 h, 4 h, 6 h, 8 h, 10 h, and 24 h time points after administration. After two weeks of washout period, the three rats were fasted overnight and orally administered a single dose of 50 mg/kg MPI8 sulfonate (20 mg/mL in water). Blood samples were collected before dosing and at 15 min, 0.5 h, 1 h, 1.5 h, 2 h, 2.5 h, 3 h, 4 h, 6 h, 8 h, 10 h, and 24 h time points after administration. Briefly, 12 time-point plasma samples from rats dosed intravenously and 13 time-point plasma samples from rats dosed orally were collected. Plasma samples were separated immediately by centrifugation of the blood samples at 13,000 rpm for 3 min and kept at −80 °C until analysis. The samples were processed following the procedure in Section 3.3.3. Three replicates for each time point were analyzed and the results were reported as mean values with standard deviation (SD) for each time point.
The pharmacokinetic parameters for each rat were estimated using Phoenix WinNonlin v8.3 software (Pharsight Corporation, Mountain View, CA, USA). Non-compartmental analysis was used to determine the pharmacokinetic parameters of MPI8. The pharmacokinetic parameters, including the area under the plasma concentration–time curve during the period of measurable observation (AUC0−10h), the area under the plasma concentration–time curve extrapolated to infinity (AUC0−inf), the apparent volume of distribution (Vz/F), the apparent clearance (CL/F), the total body mean residence time (MRT), and the terminal elimination half-life (T1/2) were estimated. The oral bioavailability (F) was calculated according to the following equation:(1) F=AUCoral×Dosei.v./AUCi.v.×Doseoral

[4] = Stability of MPI8 in rat plasma (QC samples, LC-MS/MS); type: in vitro ADME
Protocol: The quantification of MPI8 concentrations in extracted plasma samples was performed on a 6500+ Triple Quad LC-MS/MS System using a Kinetex HILIC Column (unbonded silica stationary phase, 2.6 µm, 50 × 2.1 mm, 100 Å, Phenomenex, CA, USA). The optimized method used binary gradient mobile phases with water (containing 1 mM ammonium acetate) as mobile phase A and acetonitrile as mobile phase B. A flow rate of 0.4 mL/min was used with an injection volume of 2 μL. The autosampler and oven temperature were set at 10 °C and 30 °C, respectively. The running time was 5 min. In this study, the HILIC column, widely considered as an NP column, was eluted in a typical RP time program of the gradient: Phase B was initially kept at 5% for 0.2 min, increased from 5% to 90% in the next 1.3 min, then held at 90% for 1 min, and then decreased to 5% in 1.5 min, and kept stably at 5% for 1 min. The unique behavior of MPI8 on a HILIC column, which resembles an RP characteristic, was most likely due to its hydrophobic nature.
Eighteen microliters of blank rat plasma, 2 μL of working solution (10×) (or 20 μL of rat plasma samples from pharmacokinetic studies), and 180 μL of acetonitrile (containing 5 ng/mL of IS) were vortex-mixed for 2 min and then centrifuged at 14,000 rpm for 20 min at 4 °C. Eighty μL of the supernatant were transferred to a sample vial for LC-MS/MS analysis. All samples were kept on ice during sample processing.
The stability of MPI8 was examined by keeping four replicates of the QC samples at room temperature and on ice for 4 h, in the auto-sampler tray at 10 °C for 24 h, and in a freezer at −80 °C for 3 weeks; the freeze-thaw stability was obtained over three freeze-thaw cycles, by thawing at 4 °C for 2–3 h and then refreezing at −80 °C for 12–24 h. The concentration of MPI8 after each storage period was determined using the calibration curve analyzed on the same day. The accuracy was expressed by RE%, and the precision was CV%.

[5] = tested on: SARS-CoV-2 (USA-WA1/2020); parameters: method as in PMID 35229034; conditions: SARS-CoV-2 (USA-WA1/2020) in Vero E6 cells; read-out: EC50 to neutralize SARS-CoV-2; cited from earlier work
cathepsin L = conditions: selective over cathepsins B and K; cited from earlier work
[6] = Auto-sampler (10 °C 24 h), nominal 1.5 ng/mL
[7] = Auto-sampler (10 °C 24 h), nominal 25 ng/mL
[8] = Auto-sampler (10 °C 24 h), nominal 400 ng/mL
[9] = Bench top (4 h, 4 °C), nominal 1.5 ng/mL
[10] = Bench top (4 h, 4 °C), nominal 25 ng/mL
[11] = Bench top (4 h, 4 °C), nominal 400 ng/mL
[12] = Freeze and thaw (−80 °C to 4 °C, 3 cycles), nominal 1.5 ng/mL
[13] = Freeze and thaw (−80 °C to 4 °C, 3 cycles), nominal 25 ng/mL
[14] = Freeze and thaw (−80 °C to 4 °C, 3 cycles), nominal 400 ng/mL
[15] = Long-term (−80 °C, 20 days), nominal 1.5 ng/mL
[16] = Long-term (−80 °C, 20 days), nominal 400 ng/mL
[17] = male, Sprague-Dawley, in vivo, iv, rat, i.v. 5 mg/kg MPI8 sulfonate, NCA
[18] = male, Sprague-Dawley, in vivo, rat, oral 50 mg/kg MPI8 sulfonate, NCA
[19] = rat, i.v. 5 mg/kg MPI8 sulfonate, NCA

CC(C)C[C@H](NC(=O)OCc1ccccc1)C(=O)N[C@@H](C[C@@H]1CCNC1=O)C(O)S(=O)(=O)[O-].[Na+] (stereo partly drawn) [GC376]
Conversion into active aldehyde form [1]: quickly convert

Cc1cc(=O)n(-c2ccccc2)n1C [AP, antipyrine, reference compound]
Stock solution stable for [2]: 12 months

CC(OC(C)(C)C)C(NC(=O)OCc1ccccc1)C(=O)NC(CC1CCCCC1)C(=O)NC(CC1CCNC1=O)C(O)S(=O)(=O)O (stereo not drawn) [MPI8 sulfonate]
Conversion of prodrug to MPI8 in vivo ([3]; in vivo, rats): rapid conversion; also recorded: rapidly converts

CC(OC(C)(C)C)C(NC(=O)OCc1ccccc1)C(=O)NC(CC1CCCCC1)C(=O)NC(C=O)CC1CCNC1=O (stereo not drawn) [MPI8]
Calculated concentration (Mean ± SD) [4, 6]: 1.44 ± 0.11 ng/mL | Stability accuracy (RE%) [4, 6]: −4.33% | Calculated concentration (Mean ± SD) [4, 7]: 26.8 ± 1.91 ng/mL | Stability accuracy (RE%) [4, 7]: 7.20% | Calculated concentration (Mean ± SD) [4, 8]: 458.5 ± 47.18 ng/mL | Stability accuracy (RE%) [4, 8]: 14.63% | Calculated concentration (Mean ± SD) [4, 9]: 1.35 ± 0.11 ng/mL | Stability accuracy (RE%) [4, 9]: −9.87% | Calculated concentration (Mean ± SD) [4, 10]: 21.3 ± 0.12 ng/mL | Stability accuracy (RE%) [4, 10]: −14.80% | Calculated concentration (Mean ± SD) [4, 11]: 340.25 ± 14.03 ng/mL | Stability accuracy (RE%) [4, 11]: −14.94% | Calculated concentration (Mean ± SD) [4, 12]: 1.33 ± 0.08 ng/mL | Stability accuracy (RE%) [4, 12]: −11.17% | Calculated concentration (Mean ± SD) [4, 13]: 23.5 ± 1.41 ng/mL | Stability accuracy (RE%) [4, 13]: −6.00% | Calculated concentration (Mean ± SD) [4, 14]: 362.2 ± 11.56 ng/mL | Stability accuracy (RE%) [4, 14]: −9.45% | Calculated concentration (Mean ± SD) [4, 15]: 1.44 ± 0.19 ng/mL | Stability accuracy (RE%) [4, 15]: −4.22% | Calculated concentration (Mean ± SD) ([4]; Long-term (−80 °C, 20 days), nominal 25 ng/mL): 25.18 ± 1.37 ng/mL | Calculated concentration (Mean ± SD) [4, 16]: 399 ± 17.61 ng/mL | Stability accuracy (RE%) [4, 16]: −0.25% | Degradation under the experimental conditions ([4]; conditions of Table 4): No significant degradation | Stability at room temperature in rat plasma ([4]; room temperature): not stable | Bench top stability accuracy (RE%) ([4]; room temperature, 50 ng/mL, n = 4): −27.6% | C0 at 2 min ([3]; male, Sprague-Dawley, in vivo, iv, rat, i.v. 5 mg/kg MPI8 sulfonate, 2 min after dosing, read-out: Mean initial plasma concentration): 4480 ng/mL | concentration at 10 h ([3]; male, Sprague-Dawley, in vivo, iv, rat, i.v. 5 mg/kg MPI8 sulfonate, 10 h post-dose, read-out: Mean plasma concentration): 1.24 ng/mL | AUC(0-inf) [3, 17]: 618 ± 15.7 ng·h/mL | MRT [3, 17]: 0.54 ± 0.1 h | half-life [3, 17]: 2.75 ± 0.53 h | AUC(0-t) [3, 17]: 613 ± 15.4 ng·h/mL | AUC(0-inf) [3, 18]: 1180 ± 288 ng·h/mL | MRT [3, 18]: 2.52 ± 0.16 h | half-life [3, 18]: 1.22 ± 0.46 h | Tmax ([3]; male, Sprague-Dawley, in vivo, rat, oral 50 mg/kg MPI8 sulfonate, NCA, no unit in table (h)): 2.17 ± 0.58 h | AUC(0-t) [3, 18]: 1180 ± 290 ng·h/mL | CL/F ([3]; male, Sprague-Dawley, in vivo, rat, oral 50 mg/kg MPI8 sulfonate, NCA, read-out: CL/F (converted)): 733 mL/min/kg | Vd/F ([3]; male, Sprague-Dawley, in vivo, rat, oral 50 mg/kg MPI8 sulfonate, NCA, read-out: Vz/F): 81.6 L/kg | bioavailability ([3]; male, Sprague-Dawley, rat, in vivo, 50 mg/kg, rat, oral 50 mg/kg vs i.v. 5 mg/kg MPI8 sulfonate, read-out: F (oral bioavailability)): 15.8% | Cmax ([3]; male, Sprague-Dawley, rat, in vivo, 50 mg/kg, oral 50 mg/kg MPI8 sulfonate): 601 ng/mL | Cmax ([3]; male, Sprague-Dawley, rat, in vivo, 50 mg/kg, oral 50 mg/kg MPI8 sulfonate, NCA, no unit in table (ng/mL)): 601 ± 75 ng/mL | CL/F [3, 19]: 110.116 ± 3.5637 mL/min/kg | Vz/F [3, 19]: 26,324.66 ± 5882.81 ml/kg | Plasma concentration ([3]; rat, i.v. 5 mg/kg MPI8 sulfonate, by 24 h): undetectable | Stock solution stable for [2]: 3 months | EC50 [5]: 0.03 µM | Potency toward cathepsin L (cathepsin L): potent
